Legend:
[1] = Mouse PK test (cassette dosing); type: in vivo; conditions: male, ICR; for Tmax: mouse plasma, time to reach maximum plasma concentration, oral 1 mg/kg; for MRT / clearance: plasma, mouse, intravenous 0.1 mg/kg; for MRT: mean residence time; for clearance: total clearance, read-out: CL total (converted)
Protocol: As the mouse, 8-week-old male ICR mice (Japan SLC, Inc.) were used. They were fed on a solid commercially available diet (CE-2, CLEA Japan, Inc.) and allowed to freely ingest tap water as the drinking water. An intravenous administration solution for the mice was prepared by weighing a test compound, dissolving same in dimethylacetamide (DMA) (Wako Pure Chemical Industries, Ltd.), adding the same volume of 1,3-butanediol (Wako Pure Chemical Industries, Ltd.) and mixing by stirring to give a DMA:1,3-butanediol (1:1, v/v) solution. An oral administration solution was prepared by weighing a test compound, pulverizing same in an agate mortar, and gradually adding 0.5 w/v % aqueous methylcellulose solution to give a suspension. For intravenous administration, the solution was administered into femoral vein of the mice at 0.1 mg/mL/kg (salt converted to free form). For oral administration, the suspension was administered to the mice at 1 mg/5 mL/kg (salt converted to free form). The cassette dosing method was used for the both administration routes, and the test compound was administered in the following manner.
In the case of intravenous administration, blood samples were collected from the tail vein at 5, 10, 15, 30 min, 1, 2, 4, 8 hr after administration, an anticoagulation treatment with heparin sodium (Shimizu Pharmaceutical Co., Ltd.) was performed, and plasma was collected after centrifugation and subjected to the measurement of drug concentration. In the case of oral administration, blood samples were collected from the tail vein at 15, 30 min, 1, 2, 4, 8 hr after administration, an anticoagulation treatment with heparin sodium was performed, and plasma was collected after centrifugation and subjected to the measurement of drug concentration.
All drug concentrations were measured by LC-MS/MS analysis. For a pharmacokinetics test, the plasma (5 μL) was placed in a tube, acetonitrile (115 μL) containing internal standard solution was added and they were mixed on a vortex mixer. Thereafter, the mixture was centrifuged (5000 rpm, 5 min, 4° C.). The supernatant (100 μL) after centrifugation was added to 10 mmol/L ammonium formate (100 μL) added earlier and mixed therewith. This sample was injected to LC/MS/MS. […] MS/MS used was AB Sciex TQ5500-MPX (Applied Biosystems).
Tmax: time to reach maximum plasma concentration
iv: intravenous administration
CL total: total clearance

[2] = tested on: Male SD rats; assay: Rat defecation experiment; type: in vivo; conditions: mean±standard error
Protocol: Rat Defecation Experiment
Male SD rats (5-6 weeks old) were used after an acclimation period for about 1 week. A test drug (1 mg/kg, 3 mg/kg, or 10 mg/kg) was suspended in 0.5% methylcellulose solution and orally administered at a volume of 5 mL/kg, and the number of feces 2 hr later was counted. Only 0.5% methylcellulose was administered to a solvent administration group.

Structure (SMILES)	Tmax [1]	MRT [1]	clearance [1]	number of feces 2 hr later ([2]; 1 mg/kg orally)	number of feces 2 hr later ([2]; 3 mg/kg orally)	number of feces 2 hr later ([2]; 10 mg/kg orally)
Cc1c(Cc2ccc(-c3cn(C)nn3)nc2)cc2c(=O)n([C@H]3CCOC[C@@H]3O)cnc2c1C [Example 2, 1,5-anhydro-2,3-dideoxy-3-(7,8-dimethyl-6-((6-(1-methyl-1H-1,2,3-triazol-4-yl)pyridin-3-yl)methyl)-4-oxoquinazolin-3(4H)-yl)-L-threo-pentitol]	1 h	1 h	10.9 mL/min/kg			
Cc1c(Cc2ccc(-c3cnn(C)c3)nc2)cc2c(=O)n([C@H]3CCOC[C@@H]3O)cnc2c1C [Example 6, 1,5-anhydro-2,3-dideoxy-3-(7,8-dimethyl-6-((6-(1-methyl-1H-pyrazol-4-yl)pyridin-3-yl)methyl)-4-oxoquinazolin-3(4H)-yl)-L-threo-pentitol]	1.7 h	1.4 h	4.55 mL/min/kg			
CNC(=O)c1ccc(Cc2cc3c(=O)n([C@H]4CCOC[C@@H]4O)cnc3c(C)c2C)cc1F [Example 3, 1,5-anhydro-2,3-dideoxy-3-(6-(3-fluoro-4-(methylcarbamoyl)benzyl)-7,8-dimethyl-4-oxoquinazolin-3(4H)-yl)-L-threo-pentitol]	1.7 h	1.9 h	10.2 mL/min/kg	7.4 ± 0.7	7.8 ± 1.4	
Cc1nn(C)cc1-c1ccc(Cc2cc3c(=O)n([C@H]4CCOC[C@@H]4O)cnc3c(C)c2C)cn1 [Example 5, 1,5-anhydro-2,3-dideoxy-3-(6-((6-(1,3-dimethyl-1H-pyrazol-4-yl)pyridin-3-yl)methyl)-7,8-dimethyl-4-oxoquinazolin-3(4H)-yl)-L-threo-pentitol]	0.7 h	1.2 h	7.45 mL/min/kg			

Continued, in another order:

Tmax [1]	MRT [1]	clearance [1]	Structure (SMILES)	number of feces 2 hr later ([2]; 1 mg/kg orally)	number of feces 2 hr later ([2]; 3 mg/kg orally)	number of feces 2 hr later ([2]; 10 mg/kg orally)
1.7 h	2.5 h	4.57 mL/min/kg	CNC(=O)c1ccc(Cc2cc3c(=O)n([C@H]4CCOC[C@@H]4O)nnc3c(Cl)c2C)cc1F [Example 19, 1,5-anhydro-3-(8-chloro-6-(3-fluoro-4-(methylcarbamoyl)benzyl)-7-methyl-4-oxo-1,2,3-benzotriazin-3(4H)-yl)-2,3-dideoxy-L-threo-pentitol]			
0.5 h	0.5 h	72.2 mL/min/kg	Cc1c(Cc2ccc(C(=O)NC[C@H]3CCCO3)c(F)c2)cc2c(=O)n([C@H]3CCOC[C@@H]3O)cnc2c1C [Example 81, 1,5-anhydro-2,3-dideoxy-3-(6-(3-fluoro-4-(((2R)-tetrahydrofuran-2-ylmethyl)carbamoyl)benzyl)-7,8-dimethyl-4-oxoquinazolin-3(4H)-yl)-L-threo-pentitol]	6.9 ± 1.1	7.0 ± 0.8	11.5 ± 1.1
0.7 h	0.8 h	26.6 mL/min/kg	COCCNC(=O)c1ccc(Cc2cc3c(=O)n([C@H]4CCOC[C@@H]4O)cnc3c(C)c2C)cc1F [Example 66, 1,5-anhydro-2,3-dideoxy-3-(6-(3-fluoro-4-((2-methoxyethyl)carbamoyl)benzyl)-7,8-dimethyl-4-oxoquinazolin-3(4H)-yl)-L-threo-pentitol]	9.9 ± 1.0		
